# Test results reported in patent US6774254B2, “Gold complexes” (National University of Singapore, priority 2000, dated 2004).
# Key:
# [1] = system: P3HR-1 (B-cell lymphoma); assay: human suspension tumor cell line assay, P3HR-1; format: cell-based; settings: 2 h exposure, cells counted after 5 days; read-out: cytotoxicity IC50, P3HR-1
# Experimental: (§1) The human suspension tumor cell line assay determines the ability of a compound to inhibit the cells' ability to divide in vitro after a two hour exposure to the compound. The panel of human suspension tumor cell lines consist of Raji (B-cell lymphoma), Daudi (B-cell lymphoma), P3HR-1(B-cell lymphoma), and Molt-4 (T-cell leukemia). The cytotoxicity tests were carried out in vitro according to the following protocol:
# (§2) Cryopreserved tumor cells were thawed and cultured in the media RPMI-1640 supplemented with 10% fetal calf serum (FCS) and 100 units/mL penicillin and 100 μg/mL streptomycin (“media R10”), in a 5% CO2 humidified incubator at 37° C. They were subcultured every three days in a 75 cm^2 tissue culture flask.
# (§3) A hemocytometer with four 1×1×0.1 mm^3 cells was used to count the cell concentration of a specified cell suspension solution. Trypan Blue was used to determine the viability of the counted cells, as live cells can exclude the dye penetration.
# (§4) Each of Raji, Daudi, P3HR-1 and Molt-4 cells were dispensed into 6-well petri plates with 30,000 cells per well and were labelled in groups of three. A drug solution with a specified concentration was freshly prepared by dilution of a gold complex solution (1 mM) in DMSO with the media R10. […] The number of cells in each well was counted and the average value of triplicate samples were determined for each drug concentration.
# [2] = system: K36 lymphoma; assay: secondary in vivo evaluation, K36 lymphoma at three dosage levels; set-up: species or system AKR mice
# Experimental: (§5) The in vivo anti-tumor activities of the phosphino-gold(I) compounds were evaluated using a murine tumor model, K36 lymphoma (T-cell lymphoma), inoculated subcutaneously into the AKR inbred mice. K36 lymphoma is a transformed cell line which originated from the AKR mice infected with murine leukemic retrovirus. The K36 lymphoma cells are naturally tumorigenic in syngenic AKR mice and is non-immunogenic to the host mice. The in vivo tests were carried out according to the following protocol:
# The mice were then randomly distributed into control and treatment groups with 5 mice/group.
# Day 1-7: The desired dose of a test agent was dissolved in a minimum amount (<50 μL) of dimethylacetamide (DMA), followed by addition of Cremaphor_EL (polyethoxylated castor oil, <30 μL) with mixing. Saline was added to dilute the drug solution and the desired dose was delivered in a volume of 5×0.3 mL for one group of mice (5 mice per group). […] Formulation of a test agent was carried out just before injection into the animals.
# (§6) Day 8-11: Tumor weights were estimated from two-dimensional measurement, following the formula:
# (§7) Tumor weight (in mg)=(a×b^2)/2,
# wherein a and b are tumor length and width (in mm), respectively. The usual T/C value was used to assess the in vivo anti-tumor activity. T refers to the total tumor weight of the treatment group (including zeros), whereas, C refers to the total tumor weight of the non-treatment control group (including zeros).
# In addition, three dose levels of 0.67 decrements were used in the secondary in vivo evaluation studies of (Sp)-1 and (Rp)-1 against the K36 lymphoma. The purpose of testing at multiple dosage levels is to exclude agents with exceptionally steep dose-response curves, where only the most tolerated dose is active.
# [3] = system: Raji (B-cell lymphoma); assay: human suspension tumor cell line assay, Raji; format: cell-based; settings: 2 h exposure, cells counted after 5 days; read-out: cytotoxicity IC50, Raji
# Experimental: as §1, §2, §3, §4
# [4] = system: advanced K36 lymphoma; assay: advanced K36 lymphoma model, treatment from Day 7; format: in vivo, AKR mice; settings: for average ILS % (Increased Life Span): control average life span 21 days after tumour implantation; for anti-tumor activity against advanced K36 tumor model in words (FIG. 1): treatment from Day 7, i.p. twice a day; for MTTD in advanced K36 model: treatment from Day 7, up to 4 days
# Experimental: On Day 0, AKR mice were injected with K36 lymphoma cells. On Day 7, mice were divided into control and treatment groups. Treatment groups were injected intraperitoneally with either cisplatin, (Sp)-1, or (Rp)-1. Control groups were […] treated with any of the above compounds. On each subsequent day, the 3 treatment groups were injected with the respective compounds twice a day. Tumor weights were estimated from two-dimensional measurements on each day.
# The anti-tumor activities of (Sp)- and (Rp)-I were also assessed against advanced K36 lymphoma model. Also, the active positive control, cisplatin, was included in the evaluation.
# The protocol design for this test was similar as described above except that drug administrations began on Day 7 (Day 0 is the date of implantation). At this stage, the tumor sizes on mice averaged around 9×8 mm and the estimated average tumor weight was about 300 mg. Due to the extremely fast growth of the K36 lymphoma (the double time is around 1 day), there was limited time (up to 4 days) to escalate the drug dosage to the most tolerated level, before the tumor became too big to give a positive response to any drug treatment.
# The results are visualised in FIG. 1. […] They can markedly retard the tumor growth during the period of drug treatment and even after treatment. The average ILS % (Increased Life Span) of (Sp)-I and (Rp)-I was 48% and 31%, respectively (the average life span of the control group was 21 days after tumour implantation). Particularly, one mouse treated with (Sp)-I survived for 48 days after tumour implantation.
# [5] = system: Molt-4 (T-cell leukemia); assay: human suspension tumor cell line assay, Molt-4; format: cell-based; settings: 2 h exposure, cells counted after 5 days; read-out: cytotoxicity IC50, Molt-4
# Experimental: as §1, §2, §3, §4
# [6] = system: Mahlavu (liver cancer); assay: cytotoxicity against human adherent tumor cell line Mahlavu; format: cell-based; settings: four hours exposure, cells counted after 5 days
# Experimental: In addition, cytotoxicities of (Sp)-1 and (Rp)-1 against a human adherent tumor cell line, Mahlavu (liver cancer), were also evaluated according to the following protocol:
# Cryopreserved Mahlavu cells were thawed and cultured as a monolayer in the media M10 (Dulbecco's modified eagle's medium supplemented with 10% FCS and 100 units/mL penicillin and 100 μg/mL streptomycin) in a 75 cm^2 tissue culture flask. The flask was kept in a 5% CO2 humidified incubator at 37° C. Since the cells attached strongly to the bottom of culture flask, trypsin solution in PBS was used to detach the cells and then the Mahlavu cells were washed and counted as suspension cells.
# 10,000 cells were placed into each well of 6-well petri plates and incubated overnight to allow attachment to the plate. Triplicate samples of cells were allowed to react with the gold(I) complexes at three concentrations for four hours, followed by removal of the media. As before, a control with no drug treatment was included. The plates were then washed once with PBS(5 mL) and fresh media M10 (3 mL) was added. The plates were incubated at 37° C. in a CO2 incubator for 5 days. The Mahlavu cells In each well were trypsinized and counted as usual.
# The IC50 values of (Sp)-I and (Rp)-I against this adherent tumor cell line were 6 and 8 μM, respectively. The IC50 values were determined as described above.
# [7] = system: Daudi (B-cell lymphoma); assay: human suspension tumor cell line assay, Daudi; format: cell-based; settings: 2 h exposure, cells counted after 5 days; read-out: cytotoxicity IC50, Daudi
# Experimental: as §1, §2, §3, §4
# [8] = system: K36 lymphoma (T-cell lymphoma); assay: in vivo anti-tumor activity, K36 lymphoma in AKR mice (primary screen); settings: at MTTD, i.p. Day 1-7, tumor weights Day 8-11
# Experimental: as §5
# Day 0: K36 lymphoma cells were washed with phosphate-buffered saline (PBS) for three times and suspended in RPMI 1640 medium at the concentration of 10×10^6 cells/mL 10^6 cells in 0.1 mL of the medium were implanted subcutaneously into each of the two flanks of inbred AKR mice with a ½-in, 28-gauge, 1-mL syringe. The mice were then randomly distributed into control and treatment groups with 5 mice/group.
# Day 1-7: The desired dose of a test agent was dissolved in a minimum amount (<50 μL) of dimethylacetamide (DMA), followed by addition of Cremaphor_EL (polyethoxylated castor oil, <30 μL) with mixing. Saline was added to dilute the drug solution and the desired dose was delivered in a volume of 5×0.3 mL for one group of mice (5 mice per group). In this case, the final concentration of dimethylacetamide was less than 3.3% and that of the carrier less than 2%. Formulation of a test agent was carried out just before injection into the animals. The test agent was injected intraperitoneally into the treatment groups of mice twice a day following the flexible schedule as recommended in the literature (Corbett, T. H.; Valeriote, F. A; LoRusso, P.; Polin, L; et. al. In “Anticancer Drug Development Guide: Preclinical Screening, Clinical Trials, and Approval”, (Ed. Teicher, B. A.), Humana Press Inc., Totowa, N.J., 1997 p 75-99.) to reach the most tolerated drug dose.
# as §6, §7
# wherein a and b are tumor length and width (in mm), respectively. The usual T/C value was used to assess the in vivo anti-tumor activity. T refers to the total tumor weight of the treatment group (including zeros), whereas, C refers to the total tumor weight of the non-treatment control group (including zeros). According to the NCI (National Cancer Institute in USA) standard, a T/C value of 42% is considered significant anti-tumor activity.
# Furthermore, two compounds cisplatin (cis-diaminedichloroplatinum(II)) and [Au(dppe)2]Cl (dppe: 1,2-bis(diphenylphosphino)ethane) with known anti-tumor activities were also included in the In vivo test Table 2 summarizes the anti-tumor activities of (Sp)-1 and (Rp)-1.
# [9] = dose levels of 54 and 36 μmol/kg
Structure (SMILES),IC50 [1],T/C ([2]; dosage 24 μmol/kg),T/C ([2]; dosage 36 μmol/kg),T/C ([2]; dosage 54 μmol/kg),in vivo activity in words ([2]; dosage level of 24 μmol/kg),"in vivo activity in words [2, 9]",IC50 [3],average ILS % (Increased Life Span) [4],anti-tumor activity against advanced K36 tumor model in words (FIG. 1) [4],MTTD in advanced K36 model [4],IC50 [5],IC50 [6],IC50 [7],T/C (tumor weight treated/control x 100) [8],survival of one treated mouse after tumour implantation ([4]; one mouse)
"CCOC(=O)C1C(P(c2ccccc2)c2ccccc2)C2C(C)=C(C)C1P2c1ccccc1.[Cl][Au].[Cl][Au] [(Rp)-I, μ-{(1α,4α,5α(S),6β(R),7R)-5-(diphenylphosphino)-2,3-dimethyl-6-(ethoxycarbonyl)-7-phenyl-7-phosphabicyclo[2.2.1]hept-2-ene-P5,P7}bis[chlorogold(I)]]",200 nM,38%,14%,6%,moderate activity,highly active,300 nM,31%,significant anti-tumor activities,32 µmol/kg,1000 nM,8000 nM,500 nM,6%,–
"CCOC(=O)C1C(P(c2ccccc2)c2ccccc2)C2C(C)=C(C)C1P2c1ccccc1.[Cl][Au].[Cl][Au] [(Sp)-I, μ-{(1α,4α,5α(R),6β(S),7S)-5-(diphenylphosphino)-2,3-dimethyl-6-(ethoxycarbonyl)-7-phenyl-7-phosphabicyclo[2.2.1]hept-2-ene-P5,P7}bis[chlorogold(I)]]",500 nM,33%,12%,5%,moderate activity,highly active,500 nM,48%,significant anti-tumor activities,32 µmol/kg,1000 nM,6000 nM,800 nM,5%,48 days
"N.N.[Cl][Pt][Cl] [Cisplatin, cis-diaminedichloroplatinum(II), reference compound]",–,–,–,–,–,–,–,–,did not inhibit the growth of the advanced K36 lymphoma at all,28 µmol/kg,–,–,–,6%,–
"[Au+].[Cl-].c1ccc(P(CCP(c2ccccc2)c2ccccc2)c2ccccc2)cc1.c1ccc(P(CCP(c2ccccc2)c2ccccc2)c2ccccc2)cc1 [[Au(dppe)2]Cl, reference compound]",–,–,–,–,–,–,–,–,–,–,–,–,–,12%,–
